Consider 7 compounds from patent US20230286958A1, “PLASMA KALLIKREIN INHIBITORS” (Merck Sharp & Dohme LLC, priority 2020, published 2023).

By IC50 is commonly meant the concentration that inhibits the measured activity by half. Low values mean greater potency in that assay, high ones weaker potency in that assay.

For one experiment, the target named is Human plasma kallikrein (Homo sapiens (Human), UniProt P03952). Briefly: Kallikrein Assay (fluorogenic substrate Acetyl-K-P-R-AFC). The class given is biochemical. Particulars: Plasma Kallikrein (PKal). Put shortly: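 Ki is derived from IC50 with the Cheng-Prusoff equation, and IC50 from the inflection point of a four-parameter logistic curve. The rate of AFC release is read with 0.5 nM purified enzyme and […] substrate at room temperature or 37 °C.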
Human plasma kallikrein, sequence (P03952 391-638): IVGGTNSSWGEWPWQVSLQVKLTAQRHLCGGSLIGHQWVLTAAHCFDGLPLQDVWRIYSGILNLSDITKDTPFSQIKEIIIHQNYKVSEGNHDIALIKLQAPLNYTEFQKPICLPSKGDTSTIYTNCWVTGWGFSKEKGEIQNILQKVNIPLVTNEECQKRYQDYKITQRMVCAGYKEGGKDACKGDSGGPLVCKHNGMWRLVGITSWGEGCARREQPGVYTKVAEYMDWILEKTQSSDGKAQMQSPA
Human plasma kallikrein, sequence (P03952 20-390 partner): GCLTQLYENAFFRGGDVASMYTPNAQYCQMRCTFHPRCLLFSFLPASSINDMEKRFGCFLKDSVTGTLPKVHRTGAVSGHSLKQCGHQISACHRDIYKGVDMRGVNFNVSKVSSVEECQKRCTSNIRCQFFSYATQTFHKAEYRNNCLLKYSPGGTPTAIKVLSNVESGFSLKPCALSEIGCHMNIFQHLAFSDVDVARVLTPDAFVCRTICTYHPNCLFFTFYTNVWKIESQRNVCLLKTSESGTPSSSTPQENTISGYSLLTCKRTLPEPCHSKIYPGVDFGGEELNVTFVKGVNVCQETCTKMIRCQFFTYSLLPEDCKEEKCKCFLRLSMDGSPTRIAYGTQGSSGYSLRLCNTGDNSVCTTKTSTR

The next experiment deals with human Factor XIa (Homo sapiens (Human), UniProt P03951). Nature of the experiment: Factor XIa Assay (fluorogenic substrate GPR-AFC). The class given is biochemical. To be noted: Factor XIa (FXIa).
human Factor XIa, sequence (P03951 388-625 limits assumed): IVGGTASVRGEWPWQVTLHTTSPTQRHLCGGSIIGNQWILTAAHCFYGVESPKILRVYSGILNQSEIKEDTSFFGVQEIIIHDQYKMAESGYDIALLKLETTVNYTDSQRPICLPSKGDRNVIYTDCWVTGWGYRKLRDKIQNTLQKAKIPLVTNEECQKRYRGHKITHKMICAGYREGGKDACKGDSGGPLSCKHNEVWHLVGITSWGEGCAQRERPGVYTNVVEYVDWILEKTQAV
human Factor XIa, sequence (P03951 19-387 partner limits assumed): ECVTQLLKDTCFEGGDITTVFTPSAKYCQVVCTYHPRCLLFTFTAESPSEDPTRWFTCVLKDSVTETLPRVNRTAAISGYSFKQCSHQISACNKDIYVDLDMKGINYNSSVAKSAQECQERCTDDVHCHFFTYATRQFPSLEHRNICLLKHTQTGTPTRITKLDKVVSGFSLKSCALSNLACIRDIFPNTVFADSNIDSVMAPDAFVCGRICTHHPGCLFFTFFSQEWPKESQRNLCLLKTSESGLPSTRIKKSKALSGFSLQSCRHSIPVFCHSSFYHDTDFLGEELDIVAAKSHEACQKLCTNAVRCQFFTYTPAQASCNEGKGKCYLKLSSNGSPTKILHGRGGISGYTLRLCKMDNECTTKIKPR

Take `Cc1cc(C(C)n2cc(NC(=O)c3nc(-c4c(C(F)F)ccc(Cl)c4F)cnc3C(C)O)cn2)nnc1N1C[C@H]2C[C@H]2C1=O` (single isomer, unassigned) [Example 232, 6-(3-Chloro-6-(difluoromethyl)-2-fluorophenyl)-3-((S or R)-1-hydroxyethyl)-N-(1-((R or S)-1-(5-methyl-6-((1R,5S)-2-oxo-3-azabicyclo[3.1.0]hexan-3-yl)pyridazin-3-yl)ethyl)-1H-pyrazol-4-yl)pyrazine-2-carboxamide]: the IC50 at Human plasma kallikrein was determined as 1.8 nM; against human Factor XIa it was 194 nM.

In the case of `Cc1nc(N2C[C@H]3C[C@H]3C2=O)ncc1Cn1cc(NC(=O)c2nc(-c3c(OC(F)F)ccc(Cl)c3F)cnc2C)cn1` [Example 36, 6-(3-Chloro-6-(difluoromethoxy)-2-fluorophenyl)-3-methyl-N-(1-((4-methyl-2-((1R,5S)-2-oxo-3-azabicyclo[3.1.0]hexan-3-yl)pyrimidin-5-yl)methyl)-1H-pyrazol-4-yl)pyrazine-2-carboxamide], the IC50 on Human plasma kallikrein was found to be 3 nM; on human Factor XIa, 609 nM.

Regarding `Cc1nc(N2C[C@H]3C[C@H]3C2=O)cnc1C(C)n1cc(NC(=O)c2cncc(-c3c(C(F)F)ccc(Cl)c3F)n2)cn1` (single isomer, unassigned) [Example 53, 6-(3-Chloro-6-(difluoromethyl)-2-fluorophenyl)-N-(1-((S or R)-1-(3-methyl-5-((1R,5S)-2-oxo-3-azabicyclo[3.1.0]hexan-3-yl)pyrazin-2-yl)ethyl)-1H-pyrazol-4-yl)pyrazine-2-carboxamide], the IC50 against Human plasma kallikrein was 38.3 nM; on human Factor XIa, 6630 nM.

With `C[C@@H](c1cnc(N2C[C@H]3C[C@H]3C2=O)nc1)n1cc(NC(=O)c2nc(-c3c(C(F)F)ccc(Cl)c3F)cnc2C(C)(C)O)cn1` [Example 181, 6-(3-Chloro-6-(difluoromethyl)-2-fluorophenyl)-3-(2-hydroxypropan-2-yl)-N-(1-((S)-1-(2-((1R,5S)-2-oxo-3-azabicyclo[3.1.0]hexan-3-yl)pyrimidin-5-yl)ethyl)-1H-pyrazol-4-yl)pyrazine-2-carboxamide], the IC50 at Human plasma kallikrein was 37.1 nM; on human Factor XIa, greater than 10000 nM.

Consider `CCc1ncc(-c2c(C(F)F)ccc(Cl)c2F)nc1C(=O)Nc1cnn(C(C)c2cc(C)c(N3C[C@H]4C[C@H]4C3=O)nn2)c1` (single isomer, unassigned) [Example 238, 6-(3-Chloro-6-(difluoromethyl)-2-fluorophenyl)-3-ethyl-N-(1-((R or S)-1-(5-methyl-6-((1R,5S)-2-oxo-3-azabicyclo[3.1.0]hexan-3-yl)pyridazin-3-yl)ethyl)-1H-pyrazol-4-yl)pyrazine-2-carboxamide], for which the 50% inhibitory concentration (IC50) on Human plasma kallikrein was 6.3 nM; against human Factor XIa, 734 nM.

Take `Cc1c(C(C)n2cc(NC(=O)c3cncc(-c4c(OC(F)F)ccc(Cl)c4F)n3)cn2)cnc(N2C[C@H]3C[C@H]3C2=O)c1F` (single isomer, unassigned) [Example 133, 6-(3-Chloro-6-(difluoromethoxy)-2-fluorophenyl)-N-(1-((S or R)-1-(5-fluoro-4-methyl-6-((1R,5S)-2-oxo-3-azabicyclo[3.1.0]hexan-3-yl)pyridin-3-yl)ethyl)-1i-pyrazol-4-yl)pyrazine-2-carboxamide]: the IC50 at Human plasma kallikrein is 0.6 nM; on human Factor XIa it was 510 nM.

For the compound `Cc1cc(Cn2cc(NC(=O)c3nc(-c4c(C(F)F)ccc(Cl)c4F)cnc3C)cn2)nnc1N1C[C@H]2C[C@H]2C1=O` [Example 83, 6-(3-Chloro-6-(difluoromethyl)-2-fluorophenyl)-3-methyl-N-(1-((5-methyl-6-((1R,5S)-2-oxo-3-azabicyclo[3.1.0]hexan-3-yl)pyridazin-3-yl)methyl)-1H-pyrazol-4-yl)pyrazine-2-carboxamide], the results for the IC50 on Human plasma kallikrein and against human Factor XIa were 3.4 nM and 259 nM, respectively.
